Experimental findings from US20260055107A1, “SERIES OF NITROGEN-CONTAINING BRIDGED HETEROCYCLIC COMPOUNDS AND PREPARATION METHOD THEREFOR” (CMS RESEARCH & DEVELOPMENT PTE. LTD., priority 2022, published 2026) are described below.

The nature of data set [1]: Plasma protein binding rate test (equilibrium dialysis), cynomolgus monkey. It is filed as in vitro ADME, cynomolgus monkeys. The following applies: 2 μM, equilibrium dialysis 37° C. 4 hours. As for the experimental part:
(§1) Experimental purpose: To evaluate the protein binding rate of the compounds of the present disclosure in the plasma of CD-1 mice, SD rats, beagle dogs, cynomolgus monkeys and humans using equilibrium dialysis.
(§2) The test compounds were diluted with dialysis buffer into the plasma of the above five species to prepare samples with a final concentration of 2 μM. The samples were then added to a 96-well equilibrium dialysis device and dialyzed using phosphate buffered saline solution at 37° C. for 4 hours. Warfarin was used as a control compound in the experiment. The concentration of the test compounds and warfarin in the plasma and buffer was determined using LC-MS/MS. The free fraction of the compound was calculated by the following formula: PPB_Unbound (%)=100*FC/TC, where FC is the concentration of the compound at the buffer end of the dialysis plate; TC is the concentration of the compound at the plasma end of the dialysis plate; To is the concentration of the compound in the plasma sample at time zero.
(In equilibrium dialysis free small molecules cross a membrane that holds back macromolecules.)

Data set [2] in a line: In vitro liver microsomal stability test. It is filed as in vitro ADME, human. The following applies: 1 μM compound, 0.5 mg/mL liver microsomes, NADPH. As for the experimental part: Liver microsomes: purchased from Corning or Xenotech, stored in a −80° C. refrigerator; reduced nicotinamide adenine dinucleotide phosphate (NADPH), supplier: Chem-Impex International, Cat. No.: 00616; control compounds: testosterone, diclofenac, propafenone.
Stock solution: 10 mM DMSO solution; preparation of working concentration: The stock solution was diluted to 100 μM using 100% acetonitrile (organic phase content: 99% acetonitrile, 1% DMSO).
Two 96-well incubation plates were prepared and named as T60 incubation plate and NCF60 incubation plate.
445 μL of microsomal working solution (liver microsomal protein concentration of 0.56 mg/mL) was added to both the T60 incubation plate and the NCF60 incubation plate. The two incubation plates were pre-incubated in a 37° C. water bath for approximately 10 minutes.
After pre-incubation was completed, 5 μL of the test compound or control compound working solution was added to both the T60 incubation plate and the NCF60 incubation plate and mixed well. 50 μL of potassium phosphate buffer per well was added to the NCF60 incubation plate to initiate the reaction. 180 μL of termination solution (acetonitrile solution containing 200 ng/mL tolbutamide and 200 ng/mL labetalol) and 6 μL of NADPH regeneration system working solution were added to a TO termination plate. […]

The test system of a further data set is Caco-2 cells. Briefly: In vitro Caco-2 cell permeability test. Type of data set: in vitro ADME. As to conditions: Caco-2, 2 μM, 120 minutes; for Apparent permeability coefficient: pH 7.40, direction not given; for Efflux ratio: Papp(BA)/Papp(AB). As for the experimental part: Cell culture was performed using MEM (minimum essential medium) supplemented with 2 mM L-glutamine, 10% fetal bovine serum (FBS), 100 U/mL penicillin-G and 100 μg/mL streptomycin. Cell culture conditions were 37±1° C., 5% CO2 and saturated humidity. When the cells reached a density of 80 to 90%, trypsin (0.05%, w/v)/EDTA (0.02%, w/v) digestion solution was added to digest the cells before seeding the plate. Cells were seeded in BD Falcon Transwell-96 well plates at a seeding density of 1×10^5 cells/cm^2. The cells were incubated in a carbon dioxide incubator for 22 days and then used for transport experiments.
Hank's balanced salt buffer (pH 7.40±0.05) containing 10 mM HEPES was used as the transport buffer in this project. The bidirectional transport of the test compound and the positive drug digoxin was tested at a concentration of 2 μM, with two parallel samples each, and the transport of fenoterol and propranolol from the apical to the basal end (A-B) was tested. The concentration of DMSO in the incubation system was controlled to 1% or less. After loading the sample, the cell plate was incubated at 37±1° C., 5% CO2 and saturated humidity for 120 minutes. All samples were vortexed and centrifuged at 3220 rpm and 20° C. for 20 minutes. The control sample and test sample were diluted in a 1:1 (v/v) ratio with ultrapure water and stored at 4° C., and the analytical tests were performed by liquid chromatography tandem mass spectrometry (LC/MS/MS).
In this study, the liquid chromatography tandem mass spectrometry (LC/MS/MS) method was used to semi-quantitatively analyze the peak area ratios of the test compounds and control samples fenoterol, propranolol and digoxin to the internal standard in the starting solution, receiving solution and administration well supernatant. The apparent permeability coefficient (Papp, cm/s), efflux rate and recovery rate were calculated using the following formula: • (1) Papp=(dCr/dt)×Vr/(A×C0), dCr/dt is the cumulative concentration of the compound at the receiving end per unit time (μM/s); Vr is the volume of the solution at the receiving end (0.075 mL and 0.250 mL for the solution at the apical and basal ends, respectively); A is the relative surface area of the cell monolayer (0.0804 cm^2); C0 is the starting concentration (nM) of the test sample at the administration end or the peak area ratio of the control sample. • (2) Efflux ratio=Papp(BA)/Papp(AB) • (3) Recovery rate (%)=100×[(Vr×Cr)+(Vd×Cd)]/(Vd×C0), C0 is the starting concentration (nM) of the test sample at the administration end or the peak area ratio of the control sample; Vd is the volume at the administration end (0.075 mL on the apical side and 0.250 mL on the basal side); Cd and Cr are the final concentration (nM) of the test sample or the peak area ratio of the control sample at the administration and receiving ends, respectively.
A general note: Caco-2 cells form a polarised layer with tight junctions and transporters.

Data set [3] concerns the target human complement Factor B protein (Homo sapiens (Human), UniProt P00751). Nature of the data set: Complement human Factor B protein binding test (SPR method). As to conditions: Biacore 8K, 1:1 Binding Kinetics Model. As for the experimental part: Experimental purpose: To detect the kinetic constants and affinity of the binding between the test compounds and human complement Factor B using the SPR method.
1-Ethyl-3-(3-dimethylaminopropyl) carbodiimide hydrochloride (EDC) and N-hydroxysulfosuccinimide sodium salt (NHS) were mixed in a 1:1 ratio, and complement Factor B was diluted to 20 μg/mL in acetic acid solution with a pH of 5.5. Using a biomacromolecule interaction analyzer Biacore 8K, the programmed settings were set to add the EDC/NHS, the FB protein solution and the 1 M ethanolamine-hydrochloric acid solution to the detection plate. The detection plate was placed in the machine detection chamber, and the EDC/NHS mixture, the complement Factor B protein solution and the 1 M ethanolamine-hydrochloric acid solution were sequentially injected onto the surface of the CM5 chip according to the procedure for chip activation, ligand coupling and deactivation. The flow cell 1 of each channel was used as a reference channel for surface activation and deactivation only, without injection of complement Factor B protein solution. All sample stock solutions were diluted with running buffer (PBST), and all samples were serially diluted 2 times in duplicate for 6 points. The prepared sample was transferred to the detection plate according to the program settings and the detection plate was placed in the sample chamber of Biacore 8K. The detection program was run, and the samples were injected into each channel of the chip sequentially according to the program, with a binding time of 120 s, a dissociation time of 600 s and a flow rate of 30 μL/min. The data were analyzed using Biacore Insight Evaluation Software: The data were fitted using a 1:1 Binding Kinetics Model to obtain the binding rate constant (kon), dissociation rate constant (koff) and dissociation equilibrium constant (KD) for binding of each test sample to complement Factor B protein.

The nature of data set [4]: Plasma protein binding rate test (equilibrium dialysis), dog. Type of data set: in vitro ADME, beagle dogs. As to conditions: 2 μM, equilibrium dialysis 37° C. 4 hours, beagle dog plasma. As for the experimental part:
as §1, §2

The nature of data set [5]: Plasma protein binding rate test (equilibrium dialysis), mouse. The following applies: 2 μM, equilibrium dialysis 37° C. 4 hours, CD-1 mouse plasma. Type of data set: in vitro ADME, CD-1 mice. As for the experimental part: as §1, §2
A short description of data set [6]: Plasma protein binding rate test (equilibrium dialysis), human. Type of data set: in vitro ADME. The following applies: 2 μM, equilibrium dialysis 37° C. 4 hours. As for the experimental part:
as §1, §2

A short description of data set [7]: Plasma protein binding rate test (equilibrium dialysis), rat. As to conditions: 2 μM, equilibrium dialysis 37° C. 4 hours, SD rat plasma. It is filed as in vitro ADME, SD rats. As for the experimental part: as §1, §2
Data set [8] can be described thus: Pharmacokinetic study in rats. Type of data set: in vivo, Male SD rats. The following applies: rat. As for the experimental part: Male SD rats (6 to 8 weeks old, weighing 200 to 300 g) were selected.
Injection administration (IV) was carried out at a dose of 1 mpk and a concentration of 0.20 mg/mL with a vehicle of 20% PEG400/10% solutol/70% water. Oral administration (PO) was carried out at a dose of 10 mpk and a concentration of 1 mg/mL with a vehicle of 20% PEG400/10% solutol/70% water.
Sample collection: 0.03 mL of blood samples were collected by puncture of the saphenous vein in experimental animals at each time point, and the actual blood collection time was recorded.
All blood samples were added to commercial 1.5 mL EDTA-K2 anticoagulant tubes. After blood sample collection, DDV was added into the plasma matrix as a stabilizer, wherein the ratio of plasma to Dichlorvos (DDV) solution was 40:1. The DDV solution was a 40 mM DDV solution in acetonitrile/water (1:1). Within half an hour, the mixture was centrifuged at 4° C. and 3000 g for 10 minutes. The supernatant plasma was aspirated, quickly placed in dry ice and stored in a −80° C. refrigerator for LC-MS/MS analysis.
A non-compartmental model in Phoenix WinNonlin 6.3 pharmacokinetic software was used to process the plasma concentration data. The pharmacokinetic parameters were calculated using the linear-log trapezoidal method. C0: concentration needed immediately after intravenous injection; Cmax: the highest plasma drug concentration after administration; Tmax: time needed to reach drug peak concentration after administration; T1/2: time needed for plasma drug concentration to decrease by half; Vdss: apparent volume of distribution, refers to the proportional constant between the amount of drug in the body and the plasma drug concentration when the drug reaches dynamic equilibrium in the body. Cl: clearance rate, refers to the apparent volume of distribution of the drug cleared from the body per unit time; AUC0-last: area under the drug time curve, refers to the area surrounded by the plasma drug concentration curve against the time axis; F: bioavailability.

Chain of human complement Factor B protein (P00751 26-764): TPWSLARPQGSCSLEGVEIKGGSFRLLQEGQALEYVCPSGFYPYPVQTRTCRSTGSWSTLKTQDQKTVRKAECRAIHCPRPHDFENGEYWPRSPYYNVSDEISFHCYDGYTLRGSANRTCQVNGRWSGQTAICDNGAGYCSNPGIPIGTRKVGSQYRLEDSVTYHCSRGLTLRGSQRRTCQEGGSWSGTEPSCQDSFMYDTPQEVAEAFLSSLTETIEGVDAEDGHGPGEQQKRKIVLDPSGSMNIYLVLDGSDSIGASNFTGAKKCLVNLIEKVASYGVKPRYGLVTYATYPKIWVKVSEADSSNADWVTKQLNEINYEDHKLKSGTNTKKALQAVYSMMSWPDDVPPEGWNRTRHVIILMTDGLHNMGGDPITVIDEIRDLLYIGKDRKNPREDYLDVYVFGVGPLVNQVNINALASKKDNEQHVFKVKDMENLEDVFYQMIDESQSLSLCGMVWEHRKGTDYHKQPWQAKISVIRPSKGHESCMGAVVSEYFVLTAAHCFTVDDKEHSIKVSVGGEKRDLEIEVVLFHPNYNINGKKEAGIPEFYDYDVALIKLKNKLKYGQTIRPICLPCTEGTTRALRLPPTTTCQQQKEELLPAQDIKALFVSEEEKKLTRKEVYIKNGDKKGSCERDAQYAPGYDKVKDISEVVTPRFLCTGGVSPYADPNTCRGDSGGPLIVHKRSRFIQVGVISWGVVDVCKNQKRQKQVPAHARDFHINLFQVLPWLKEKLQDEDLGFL

In the case of `CCSC1CC2CCC(c3ccc(C(=O)O)cc3)(C1)N2Cc1c(OC)cc(C)c2[nH]ccc12.O=CO` (single isomer, unassigned) [Compound 1B], the “Plasma protein binding (PPB) unbound, Cynomolgus monkey (C)” value in data set [1] worked out at 17.4%. Further, the “Human liver microsomal stability CLint” value in [2] is listed as <15 mL/min/kg. Besides, in the data set with Caco-2 cells, the Apparent permeability coefficient is reported as 1.19 10^−6 cm/s and the Efflux ratio worked out at 26.1. In data set [3], the Kd is < 0.1 µM. In data set [4], the “Plasma protein binding (PPB) unbound, Dog (D)” value is recorded as 16.2%. Besides, in data set [5], the “Plasma protein binding (PPB) unbound, Mouse (M)” value was 12.5%. Further, the “Plasma protein binding (PPB) unbound, Human (H)” value in [6] turned out to be 13.3%. For the same compound, the “Plasma protein binding (PPB) unbound, Rat (R)” value in data set [7] is recorded as 11.6%.
Regarding `COc1cc(C)c2[nH]ccc2c1CN1C2CCC1(c1ccc(C(=O)O)cc1)CC(SC)C2.O=CO` (single isomer, unassigned) [Compound 2B], the “Plasma protein binding (PPB) unbound, Cynomolgus monkey (C)” value in data set [1] amounted to 25.6%. In data set [8] (IV 1 mpk), this compound registered an AUC0-last of 5.645 µM·h, a C0 of 5.81 µM, a Cl of 6.5 mL/min/kg and a T1/2 of 1.16 h. The compound also returned a Vdss in data set [8] (IV 1 mpk) of 0.55 L/kg. For the same compound, in [8] (PO 10 mpk), the AUC0-last was found to be 28.425 µM·h, the Cmax was found to be 9.03 µM, the T1/2 is reported as 11.7 h and the Tmax stood at 0.50 h. Moreover, the F in data set [8] (PO 10 mpk vs IV 1 mpk) turned out to be 50.4%. In addition, in the data set on Caco-2 cells, the Apparent permeability coefficient was 1.56 10^−6 cm/s and the Efflux ratio came to 15.8. Further, the Kd in data set [3] is < 0.1 µM. Moreover, in data set [4], the “Plasma protein binding (PPB) unbound, Dog (D)” value is reported as 31.7%. Also, in [5], the “Plasma protein binding (PPB) unbound, Mouse (M)” value stood at 22.2%. The “Plasma protein binding (PPB) unbound, Human (H)” value in data set [6] was 21.7%. Further, the “Plasma protein binding (PPB) unbound, Rat (R)” value in data set [7] is 15.1%.
In the case of `CCS[C@H]1C[C@H]2CC[C@@](c3ccc(C(=O)O)cc3)(C1)N2Cc1c(OC)cc(C)c2[nH]ccc12` [Compound 1A], in [3], the Kd is < 0.1 µM.
For the compound `COc1cc(C)c2[nH]ccc2c1CN1[C@@H]2CC[C@@]1(c1ccc(C(=O)O)cc1)C[C@@H](SC)C2` [Compound 2A], the Kd in data set [3] was < 0.1 µM.
On to `COc1cc(C)c2[nH]ccc2c1CN1[C@@H]2CC[C@@]1(c1ccc(C(=O)O)cc1)C[C@H](C1CC1)C2` [Compound 3A], for which the Kd in data set [3] is < 0.1 µM.

A word on the Kd: it is the free concentration of one partner at which half of the binding sites on the other are occupied at equilibrium, for simple one-to-one binding. What is called Vdss is the apparent volume that relates the amount in the body to the concentration in plasma or blood. Usually Cmax stands for the maximum level reached in the sampled fluid or tissue. In general, Tmax refers to the time at which the peak concentration occurs.
